Earlier results on 1 molecule are cited in patent US5973156A, “Piperidine and tetrahydropyridine derivatives” (Merck Sharp & Dome Ltd., priority 1995, dated 1999).

For series [1], the system named is human 5-HT1D.spsb.α and 5-HT1D.spsb.β receptor subtypes.
For series [2] the following is noted: humans, therapeutic doses.

With `CNS(=O)(=O)Cc1ccc2[nH]cc(CCN(C)C)c2c1` [sumatriptan], in series [1], the “discrimination between the human 5-HT1D.spsb.α and 5-HT1D.spsb.β receptor subtypes” value is given as “barely discriminates”. Moreover, in series [2], the adverse cardiovascular events entry was “certain adverse cardiovascular events”.
